Test results as given in ChEMBL document CHEMBL4507310, “Data for DCP probe A-1211212” (2021).

What was measured:
[1] = biological target: Tyrosine-protein kinase ZAP-70 (Homo sapiens) (UniProt P43403); conditions: Compound concentration 1000.0 nM
[2] = biological target: Tyrosine-protein kinase Fer (Homo sapiens) (UniProt P16591); conditions: Compound concentration 1000.0 nM
[3] = biological target: Cyclin-dependent kinase 4 (Homo sapiens) (UniProt P11802); conditions: Compound concentration 1000.0 nM
[4] = biological target: T1, 5-hydroxytryptamine receptor 1A (Homo sapiens) (UniProt P08908); assay: 5-HT1A (h) Eurofins-Cerep binding assay; parameters: ligand concentration 0.5 nM; conditions: filed as agonist, Compound concentration 10.0 uM
T1 sequence (whole entry): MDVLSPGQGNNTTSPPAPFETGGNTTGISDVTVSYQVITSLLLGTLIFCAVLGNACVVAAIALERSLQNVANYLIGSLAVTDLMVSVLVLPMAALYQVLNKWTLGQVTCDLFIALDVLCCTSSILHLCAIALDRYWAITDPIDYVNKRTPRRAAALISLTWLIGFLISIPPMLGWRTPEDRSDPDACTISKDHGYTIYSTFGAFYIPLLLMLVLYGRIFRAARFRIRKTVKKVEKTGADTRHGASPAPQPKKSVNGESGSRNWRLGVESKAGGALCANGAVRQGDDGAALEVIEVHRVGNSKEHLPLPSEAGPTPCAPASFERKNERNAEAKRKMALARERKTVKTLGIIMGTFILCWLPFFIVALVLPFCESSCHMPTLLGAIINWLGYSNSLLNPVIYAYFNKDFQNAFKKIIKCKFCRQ

[5] = biological target: Tyrosine-protein kinase JAK2 (Homo sapiens) (UniProt O60674); conditions: Compound concentration 1000.0 nM
[6] = biological target: Glucocorticoid receptor (Homo sapiens) (UniProt P04150); assay: GR (h) Eurofins-Cerep binding assay; parameters: ligand concentration 1.5 nM; conditions: filed as agonist, Compound concentration 10.0 uM
[7] = biological target: Type-1 angiotensin II receptor (Homo sapiens) (UniProt P30556); assay: AT1 (h) Eurofins-Cerep binding assay; parameters: ligand concentration 0.05 nM; conditions: filed as antagonist, Compound concentration 10.0 uM
[8] = biological target: Rho-associated protein kinase 1 (Homo sapiens) (UniProt Q13464); conditions: Compound concentration 1000.0 nM
[9] = biological target: Serine/threonine-protein kinase TAO3 (Homo sapiens) (UniProt Q9H2K8); conditions: Compound concentration 1000.0 nM
[10] = biological target: Serine/threonine-protein kinase B-raf (Homo sapiens) (UniProt P15056); conditions: Compound concentration 1000.0 nM
[11] = tested on: Receptor-type tyrosine-protein kinase FLT3 (Homo sapiens), P36888 [N841I]; conditions: Compound concentration 1000.0 nM
[12] = tested on: Receptor-type tyrosine-protein kinase FLT3 (Homo sapiens), P36888 [D835Y]; conditions: Compound concentration 1000.0 nM
[13] = biological target: cAMP-dependent protein kinase catalytic subunit beta (Homo sapiens) (UniProt P22694); conditions: Compound concentration 1000.0 nM
[14] = biological target: Mitogen-activated protein kinase kinase kinase 6 (Homo sapiens) (UniProt O95382); conditions: Compound concentration 1000.0 nM
[15] = biological target: Serine/threonine-protein kinase PLK2 (Homo sapiens) (UniProt Q9NYY3); conditions: Compound concentration 1000.0 nM
[16] = biological target: Serine/threonine-protein kinase SIK2 (Homo sapiens) (UniProt Q9H0K1); conditions: Compound concentration 1000.0 nM
[17] = biological target: Serine/threonine-protein kinase TBK1 (Homo sapiens) (UniProt Q9UHD2); conditions: Compound concentration 1000.0 nM
[18] = biological target: T2, Muscarinic acetylcholine receptor M5 (Homo sapiens) (UniProt P08912); assay: M5 (h) Eurofins-Cerep binding assay; parameters: ligand concentration 0.3 nM; conditions: filed as antagonist, Compound concentration 10.0 uM
T2 sequence (whole entry): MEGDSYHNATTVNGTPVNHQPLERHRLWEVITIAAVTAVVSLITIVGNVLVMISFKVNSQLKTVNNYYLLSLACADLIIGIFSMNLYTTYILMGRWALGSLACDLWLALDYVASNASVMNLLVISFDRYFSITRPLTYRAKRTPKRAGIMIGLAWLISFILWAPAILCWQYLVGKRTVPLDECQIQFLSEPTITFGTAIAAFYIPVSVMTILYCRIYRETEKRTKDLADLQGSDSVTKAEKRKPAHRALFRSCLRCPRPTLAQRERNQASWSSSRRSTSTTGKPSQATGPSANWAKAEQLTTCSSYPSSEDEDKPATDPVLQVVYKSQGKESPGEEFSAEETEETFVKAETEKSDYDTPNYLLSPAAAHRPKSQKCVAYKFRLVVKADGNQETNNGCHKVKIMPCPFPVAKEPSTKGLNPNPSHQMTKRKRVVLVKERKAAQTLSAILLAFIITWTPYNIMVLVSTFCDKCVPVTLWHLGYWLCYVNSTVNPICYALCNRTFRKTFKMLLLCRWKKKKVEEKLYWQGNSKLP

[19] = biological target: Mitotic checkpoint serine/threonine-protein kinase BUB1 (Homo sapiens) (UniProt O43683); conditions: Compound concentration 1000.0 nM
[20] = biological target: Adenosine receptor A2a (Homo sapiens) (UniProt P29274); assay: A2A (h) Eurofins-Cerep binding assay; parameters: ligand concentration 6 nM; conditions: filed as agonist, Compound concentration 10.0 uM
[21] = biological target: Serine/threonine-protein kinase PAK 3 (Homo sapiens) (UniProt O75914); conditions: Compound concentration 1000.0 nM
[22] = biological target: Megakaryocyte-associated tyrosine-protein kinase (Homo sapiens) (UniProt P42679); conditions: Compound concentration 1000.0 nM
[23] = biological target: Bone morphogenetic protein receptor type-1A (Homo sapiens) (UniProt P36894); conditions: Compound concentration 1000.0 nM
[24] = biological target: Mitogen-activated protein kinase 1 (Homo sapiens) (UniProt P28482); conditions: Compound concentration 1000.0 nM
[25] = biological target: Inhibitor of nuclear factor kappa-B kinase subunit beta (Homo sapiens) (UniProt O14920); conditions: Compound concentration 1000.0 nM
[26] = biological target: Acetylcholinesterase (Homo sapiens) (UniProt P22303); assay: Acetylcholinesterase (h) Eurofins-Cerep enzyme and uptake assay; conditions: Compound concentration 10.0 uM
[27] = biological target: Phosphatidylinositol 4,5-bisphosphate 3-kinase catalytic subunit beta isoform (Homo sapiens) (UniProt P42338); conditions: Compound concentration 1000.0 nM
[28] = biological target: Delta-type opioid receptor (Homo sapiens) (UniProt P41143); conditions: Compound concentration 10.0 uM
[29] = biological target: Tyrosine-protein kinase CSK (Homo sapiens) (UniProt P41240); conditions: Compound concentration 1000.0 nM
[30] = biological target: 5-hydroxytryptamine receptor 4 (Homo sapiens) (UniProt Q13639); assay: 5-HT4 e (h) Eurofins-Cerep binding assay; parameters: ligand concentration 0.3 nM; conditions: filed as antagonist, Compound concentration 10.0 uM
[31] = biological target: Vasoactive intestinal polypeptide receptor 1 (Homo sapiens) (UniProt P32241); assay: VPAC1 (VIP1) (h) Eurofins-Cerep binding assay; parameters: ligand concentration 0.04 nM; conditions: filed as agonist, Compound concentration 10.0 uM
[32] = biological target: Sigma non-opioid intracellular receptor 1 (Homo sapiens) (UniProt Q99720); conditions: Compound concentration 10.0 uM

Adenosine receptor A2a (Homo sapiens), sequence (P29274 whole entry): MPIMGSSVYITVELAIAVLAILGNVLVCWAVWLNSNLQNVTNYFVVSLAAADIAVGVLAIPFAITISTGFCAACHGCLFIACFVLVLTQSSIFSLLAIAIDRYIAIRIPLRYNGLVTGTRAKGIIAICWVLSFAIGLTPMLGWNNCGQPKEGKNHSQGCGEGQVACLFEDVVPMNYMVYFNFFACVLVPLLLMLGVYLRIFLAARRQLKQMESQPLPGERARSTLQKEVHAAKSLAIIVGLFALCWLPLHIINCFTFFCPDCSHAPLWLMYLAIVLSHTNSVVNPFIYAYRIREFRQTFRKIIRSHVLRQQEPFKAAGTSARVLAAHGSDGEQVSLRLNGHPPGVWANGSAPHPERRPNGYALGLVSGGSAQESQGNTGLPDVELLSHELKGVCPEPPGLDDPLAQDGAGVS
Megakaryocyte-associated tyrosine-protein kinase (Homo sapiens), sequence (P42679 whole entry): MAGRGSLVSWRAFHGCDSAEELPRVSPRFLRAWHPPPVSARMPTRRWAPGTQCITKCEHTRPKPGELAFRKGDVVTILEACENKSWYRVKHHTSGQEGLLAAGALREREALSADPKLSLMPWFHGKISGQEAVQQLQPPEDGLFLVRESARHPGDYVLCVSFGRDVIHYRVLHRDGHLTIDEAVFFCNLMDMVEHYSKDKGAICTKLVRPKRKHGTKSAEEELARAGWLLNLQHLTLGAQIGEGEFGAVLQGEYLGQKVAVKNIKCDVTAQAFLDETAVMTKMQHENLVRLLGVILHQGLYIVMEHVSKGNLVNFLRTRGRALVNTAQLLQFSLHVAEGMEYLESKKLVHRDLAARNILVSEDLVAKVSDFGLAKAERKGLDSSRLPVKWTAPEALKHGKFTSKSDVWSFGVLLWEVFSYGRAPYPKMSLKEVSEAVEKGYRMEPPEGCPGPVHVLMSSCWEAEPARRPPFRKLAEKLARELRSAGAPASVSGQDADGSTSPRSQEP
Bone morphogenetic protein receptor type-1A (Homo sapiens), sequence (P36894 whole entry): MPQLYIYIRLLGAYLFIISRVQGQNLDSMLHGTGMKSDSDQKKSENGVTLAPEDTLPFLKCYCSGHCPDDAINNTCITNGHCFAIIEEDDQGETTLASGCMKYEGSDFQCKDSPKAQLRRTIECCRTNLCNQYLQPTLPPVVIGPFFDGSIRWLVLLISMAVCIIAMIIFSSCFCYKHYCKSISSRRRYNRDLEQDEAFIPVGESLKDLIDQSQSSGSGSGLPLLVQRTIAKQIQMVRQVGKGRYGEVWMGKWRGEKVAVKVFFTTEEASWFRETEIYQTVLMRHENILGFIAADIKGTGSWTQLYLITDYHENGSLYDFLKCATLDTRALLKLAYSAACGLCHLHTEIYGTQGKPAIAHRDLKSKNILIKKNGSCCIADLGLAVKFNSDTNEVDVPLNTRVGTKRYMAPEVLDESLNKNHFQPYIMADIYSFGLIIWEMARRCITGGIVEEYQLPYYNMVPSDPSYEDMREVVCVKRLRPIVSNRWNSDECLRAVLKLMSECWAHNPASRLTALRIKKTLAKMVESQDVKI
Type-1 angiotensin II receptor (Homo sapiens), sequence (P30556 whole entry): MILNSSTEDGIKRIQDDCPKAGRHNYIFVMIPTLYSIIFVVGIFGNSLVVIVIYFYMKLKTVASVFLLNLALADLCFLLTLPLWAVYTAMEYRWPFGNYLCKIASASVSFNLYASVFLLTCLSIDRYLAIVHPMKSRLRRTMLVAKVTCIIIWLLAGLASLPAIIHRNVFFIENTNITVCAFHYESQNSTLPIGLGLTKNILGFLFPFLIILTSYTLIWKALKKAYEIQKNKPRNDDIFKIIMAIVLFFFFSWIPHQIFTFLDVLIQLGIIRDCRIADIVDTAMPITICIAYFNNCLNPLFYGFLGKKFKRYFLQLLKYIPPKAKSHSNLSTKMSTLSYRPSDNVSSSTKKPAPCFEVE
Tyrosine-protein kinase CSK (Homo sapiens), sequence (P41240 2-450 limits assumed): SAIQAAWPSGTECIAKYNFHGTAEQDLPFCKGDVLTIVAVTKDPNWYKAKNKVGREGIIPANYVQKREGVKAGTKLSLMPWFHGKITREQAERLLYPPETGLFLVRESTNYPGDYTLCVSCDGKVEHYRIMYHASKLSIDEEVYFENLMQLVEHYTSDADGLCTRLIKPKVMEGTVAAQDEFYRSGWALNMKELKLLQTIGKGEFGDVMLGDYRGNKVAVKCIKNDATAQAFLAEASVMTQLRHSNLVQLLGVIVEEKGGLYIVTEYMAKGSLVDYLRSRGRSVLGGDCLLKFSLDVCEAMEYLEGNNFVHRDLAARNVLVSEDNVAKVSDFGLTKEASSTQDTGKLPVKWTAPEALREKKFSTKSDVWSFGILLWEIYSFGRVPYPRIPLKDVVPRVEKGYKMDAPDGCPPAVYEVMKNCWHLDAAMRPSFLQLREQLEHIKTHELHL
Serine/threonine-protein kinase B-raf (Homo sapiens), sequence (P15056 whole entry): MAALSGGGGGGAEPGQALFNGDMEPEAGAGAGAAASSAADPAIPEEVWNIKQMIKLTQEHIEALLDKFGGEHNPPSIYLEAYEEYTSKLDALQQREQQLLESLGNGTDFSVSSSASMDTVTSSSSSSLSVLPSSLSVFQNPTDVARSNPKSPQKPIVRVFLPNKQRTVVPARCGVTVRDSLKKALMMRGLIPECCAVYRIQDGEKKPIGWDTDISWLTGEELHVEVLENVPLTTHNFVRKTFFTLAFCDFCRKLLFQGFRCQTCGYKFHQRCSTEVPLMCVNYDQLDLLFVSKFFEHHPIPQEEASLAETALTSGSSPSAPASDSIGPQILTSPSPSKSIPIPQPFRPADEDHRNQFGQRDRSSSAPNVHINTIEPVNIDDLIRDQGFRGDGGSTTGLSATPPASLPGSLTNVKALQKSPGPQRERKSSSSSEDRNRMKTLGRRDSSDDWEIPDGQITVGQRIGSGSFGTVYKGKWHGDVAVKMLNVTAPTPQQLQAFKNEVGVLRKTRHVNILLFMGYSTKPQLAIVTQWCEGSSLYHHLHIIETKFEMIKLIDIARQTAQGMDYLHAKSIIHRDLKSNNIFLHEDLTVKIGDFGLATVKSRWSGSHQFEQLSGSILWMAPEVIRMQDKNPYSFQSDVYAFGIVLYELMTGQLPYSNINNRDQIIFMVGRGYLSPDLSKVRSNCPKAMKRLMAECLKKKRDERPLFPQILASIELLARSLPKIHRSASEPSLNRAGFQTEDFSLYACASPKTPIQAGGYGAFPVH
Tyrosine-protein kinase ZAP-70 (Homo sapiens), sequence (P43403 whole entry): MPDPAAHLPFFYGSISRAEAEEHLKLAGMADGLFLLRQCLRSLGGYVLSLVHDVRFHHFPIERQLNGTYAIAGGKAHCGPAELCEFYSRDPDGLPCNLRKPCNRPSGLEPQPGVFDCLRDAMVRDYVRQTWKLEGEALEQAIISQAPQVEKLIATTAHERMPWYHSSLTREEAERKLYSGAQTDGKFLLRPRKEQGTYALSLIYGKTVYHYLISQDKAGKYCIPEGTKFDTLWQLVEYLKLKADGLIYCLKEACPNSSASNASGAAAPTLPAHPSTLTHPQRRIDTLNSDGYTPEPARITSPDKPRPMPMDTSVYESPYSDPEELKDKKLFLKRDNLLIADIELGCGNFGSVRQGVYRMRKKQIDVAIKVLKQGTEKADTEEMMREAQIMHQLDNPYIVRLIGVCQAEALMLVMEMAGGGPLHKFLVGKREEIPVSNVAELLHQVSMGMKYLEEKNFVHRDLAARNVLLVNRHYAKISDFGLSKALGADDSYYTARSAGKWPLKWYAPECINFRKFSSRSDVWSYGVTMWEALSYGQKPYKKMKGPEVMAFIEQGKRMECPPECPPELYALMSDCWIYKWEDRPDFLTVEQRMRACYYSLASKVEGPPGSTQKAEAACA
Serine/threonine-protein kinase PAK 3 (Homo sapiens), sequence (O75914 whole entry, looked up): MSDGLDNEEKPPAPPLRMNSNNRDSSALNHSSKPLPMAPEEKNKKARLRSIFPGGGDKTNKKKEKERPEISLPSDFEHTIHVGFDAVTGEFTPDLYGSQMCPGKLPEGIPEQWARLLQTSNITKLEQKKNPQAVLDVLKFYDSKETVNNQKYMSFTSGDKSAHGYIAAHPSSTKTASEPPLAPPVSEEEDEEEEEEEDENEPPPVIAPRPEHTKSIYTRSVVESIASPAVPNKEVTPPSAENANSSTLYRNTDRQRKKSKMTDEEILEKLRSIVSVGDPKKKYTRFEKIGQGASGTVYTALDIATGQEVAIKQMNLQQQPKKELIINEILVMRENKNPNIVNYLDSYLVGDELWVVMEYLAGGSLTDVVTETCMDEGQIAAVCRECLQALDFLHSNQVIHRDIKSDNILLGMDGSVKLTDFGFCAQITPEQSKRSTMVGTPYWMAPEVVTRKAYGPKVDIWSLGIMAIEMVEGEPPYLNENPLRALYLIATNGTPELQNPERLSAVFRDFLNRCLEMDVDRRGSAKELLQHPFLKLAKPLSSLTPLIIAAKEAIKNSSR
Serine/threonine-protein kinase PLK2 (Homo sapiens), sequence (Q9NYY3 whole entry, looked up): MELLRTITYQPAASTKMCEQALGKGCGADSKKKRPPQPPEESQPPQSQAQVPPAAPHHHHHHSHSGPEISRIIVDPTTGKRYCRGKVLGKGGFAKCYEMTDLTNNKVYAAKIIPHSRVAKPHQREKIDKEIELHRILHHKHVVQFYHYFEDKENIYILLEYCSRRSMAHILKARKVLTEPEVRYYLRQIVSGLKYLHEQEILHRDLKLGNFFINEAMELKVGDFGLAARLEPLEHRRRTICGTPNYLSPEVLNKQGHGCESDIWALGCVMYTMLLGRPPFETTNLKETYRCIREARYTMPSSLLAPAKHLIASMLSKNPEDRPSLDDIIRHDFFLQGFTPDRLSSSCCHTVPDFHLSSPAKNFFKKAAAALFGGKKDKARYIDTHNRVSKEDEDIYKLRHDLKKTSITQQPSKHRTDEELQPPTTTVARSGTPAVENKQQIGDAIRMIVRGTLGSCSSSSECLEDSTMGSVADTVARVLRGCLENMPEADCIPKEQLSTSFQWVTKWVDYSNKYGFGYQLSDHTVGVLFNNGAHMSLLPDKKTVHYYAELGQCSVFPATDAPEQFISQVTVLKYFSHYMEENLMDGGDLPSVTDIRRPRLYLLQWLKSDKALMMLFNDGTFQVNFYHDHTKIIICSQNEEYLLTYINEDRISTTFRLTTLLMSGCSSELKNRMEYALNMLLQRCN

## O=C(NS(=O)(=O)c1ccc(NCC2CCOCC2)c([N+](=O)[O-])c1)c1ccc(N2CCN(Cc3ccc(C(F)(F)F)cc3-c3ccc(Cl)cc3)CC2)cc1Oc1cnc2[nH]ccc2c1 [A-1210227]
[1]
  residual activity: 82%
[2]
  residual activity: 94%
[3]
  residual activity: 100%
[4]
  % Inhibition of Control Specific Binding (Mean n=2): -3.4%
[5]
  residual activity: 90%
[6]
  % Inhibition of Control Specific Binding (Mean n=2): -9.4%
[7]
  % Inhibition of Control Specific Binding (Mean n=2): -3.9%
[8]
  residual activity: 100%
[9]
  residual activity: 86%
[10]
  residual activity: 100%
[11]
  residual activity: 100%
[12]
  residual activity: 99%
[13]
  residual activity: 91%
[14]
  residual activity: 80%
[15]
  residual activity: 100%
[16]
  residual activity: 100%
[17]
  residual activity: 74%
[18]
  % Inhibition of Control Specific Binding (Mean n=2): -1.6%
[19]
  residual activity: 100%
[20]
  % Inhibition of Control Specific Binding (Mean n=2): 1.3%
[21]
  residual activity: 77%
[22]
  residual activity: 100%
[23]
  residual activity: 81%
[24]
  residual activity: 87%
[25]
  residual activity: 74%
[26]
  % Inhibition of Control Values (Mean n=2): 11%
[27]
  residual activity: 100%
[28]
  inhibition: -3.92%
[29]
  residual activity: 87%
[30]
  % Inhibition of Control Specific Binding (Mean n=2): -2%
[31]
  % Inhibition of Control Specific Binding (Mean n=2): -57.7%
[32]
  inhibition: 11.1%

## CO[C@H]1CC[C@H](CNc2ccc(S(=O)(=O)NC(=O)c3ccc(N4CCN(CC5=C(c6ccc(Cl)cc6)CC(C)(C)CC5)CC4)cc3Oc3cnc4[nH]ccc4c3)cc2[N+](=O)[O-])CC1 [A-1211212]
[1]
  residual activity: 97%
[2]
  residual activity: 67%
[3]
  residual activity: 100%
[4]
  % Inhibition of Control Specific Binding (Mean n=2): -2.7%
[5]
  residual activity: 89%
[6]
  % Inhibition of Control Specific Binding (Mean n=2): 4.6%
[7]
  % Inhibition of Control Specific Binding (Mean n=2): 19.3%
[8]
  residual activity: 70%
[9]
  residual activity: 87%
[10]
  residual activity: 100%
[11]
  residual activity: 100%
[12]
  residual activity: 100%
[13]
  residual activity: 88%
[14]
  residual activity: 93%
[15]
  residual activity: 100%
[16]
  residual activity: 100%
[17]
  residual activity: 60%
[18]
  % Inhibition of Control Specific Binding (Mean n=2): 8.6%
[19]
  residual activity: 73%
[20]
  % Inhibition of Control Specific Binding (Mean n=2): -4.4%
[21]
  residual activity: 64%
[22]
  residual activity: 89%
[23]
  residual activity: 57%
[24]
  residual activity: 84%
[25]
  residual activity: 100%
[26]
  % Inhibition of Control Values (Mean n=2): 3.2%
[27]
  residual activity: 100%
[28]
  inhibition: 5.68%
[29]
  residual activity: 76%
[30]
  % Inhibition of Control Specific Binding (Mean n=2): -1%
[31]
  % Inhibition of Control Specific Binding (Mean n=2): -26.6%
[32]
  inhibition: 49.8%
